Test results: patent US9802927B2, “Oxadiazine compounds and methods of use thereof” (Denali Therapeutics, Inc., priority 2015, dated 2017)

Tested on: Aβ42
Assay: In vitro cell screening assay in H4 cells expressing human APP751: Aβ42 by sandwich ELISA
Format: cell-based
Settings: compounds 0.003-10 μM, incubated overnight (16-18 h), sandwich ELISA of supernatant
Summary of the method: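 H4 neuroglioma cells stably expressing wild-type human APP751, switched to Pro293 medium and treated with compounds (0.003-10 μM, 0.33% DMSO) for 16-18 h at 37 °C. Supernatant Aβ42 quantified by sandwich ELISA (C-terminal capture, 4G8-HRP detection, A450); EC50 by sigmoidal fit normalized to DMSO and DAPT controls.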

EC50 [nM] | EC50 (Homo sapiens) [nM] | SMILES
6.9 |  | COc1nc(C2=NOCC(c3cn(C)c4cccc(F)c34)N2)ccc1-n1cnc(C)c1 (single isomer, unassigned; (+)) [Example 191A, (+)-5-(4-fluoro-1-methyl-1H-indol-3-yl)-3-(6-methoxy-5-(4-methyl-1H-imidazol-1-yl)pyridin-2-yl)-5,6-dihydro-4H-1,2,4-oxadiazine]
 | > 3000 | COc1nc(C2=NOCC(c3cnn(C)c3)N2)ccc1-n1cnc(C)c1 (single isomer, unassigned; (-)) [Example 166A, (−)-3-(6-methoxy-5-(4-methyl-1H-imidazol-1-yl)pyridin-2-yl)-5-(1-methyl-1H-pyrazol-4-yl)-5,6-dihydro-4H-1,2,4-oxadiazine]
256 |  | COc1nc(C2=NOCC(c3nc4ccccc4o3)N2)ccc1-n1cnc(C)c1 (single isomer, unassigned; (+)) [Example 203B, (+)-2-(3-(6-methoxy-5-(4-methyl-1H-imidazol-1-yl)pyridin-2-yl)-5,6-dihydro-4H-1,2,4-oxadiazin-5-yl)benzo[d]oxazole]
25.7 |  | COc1nc(C2=NOCC(c3cc4c(F)cccc4o3)N2)ccc1-n1cnc(C)c1 (single isomer, unassigned; (-)) [Example 99B, (−)-5-(4-fluorobenzofuran-2-yl)-3-(6-methoxy-5-(4-methyl-1H-imidazol-1-yl)pyridin-2-yl)-5,6-dihydro-4H-1,2,4-oxadiazine]
> 3000 |  | COc1nc(C2=NOCC(c3ccc(F)c(C(F)(F)F)c3)N2)ccc1-n1cnc(C)c1 (single isomer, unassigned) [Example 44A, 5-(4-fluoro-3-(trifluoromethyl)phenyl)-3-(6-methoxy-5-(4-methyl-1H-imidazol-1-yl)pyridin-2-yl)-5,6-dihydro-4H-1,2,4-oxadiazine]
24.9 |  | COc1nc(C2=NOCC(c3cc(F)c(Cl)c(F)c3)N2)ccc1-n1cnc(C)c1 (single isomer, unassigned; (+)) [Example 267B, (+)-5-(4-chloro-3,5-difluorophenyl)-3-(6-methoxy-5-(4-methyl-1H-imidazol-1-yl)pyridin-2-yl)-5,6-dihydro-4H-1,2,4-oxadiazine]
 | 16 | COc1nc(C2=NOC[C@H](c3cc4cc(C)ccc4o3)N2)ccc1-n1cnc(C)c1 [Example 10, (R)-3-(6-Methoxy-5-(4-methyl-1H-imidazol-1-yl)pyridin-2-yl)-5-(5-methylbenzofuran-2-yl)-5,6-dihydro-4H-1,2,4-oxadiazine]
> 3000 |  | COc1nc(C2=NOCC(c3noc4ccccc34)N2)ccc1-n1cnc(C)c1 (single isomer, unassigned) [Example 174A, 3-(3-(6-methoxy-5-(4-methyl-1H-imidazol-1-yl)pyridin-2-yl)-5,6-dihydro-4H-1,2,4-oxadiazin-5-yl) benzo[d]isoxazole]
8.5 |  | COc1nc(C2=NOCC(c3cn(C)c4cc(F)ccc34)N2)ccc1-n1cnc(C)c1 (single isomer, unassigned; (+)) [Example 192B, (+)-5-(6-fluoro-1-methyl-1H-indol-3-yl)-3-(6-methoxy-5-(4-methyl-1H-imidazol-1-yl)pyridin-2-yl)-5,6-dihydro-4H-1,2,4-oxadiazine]
154 |  | COc1ccc2c(C3CON=C(c4ccc(-n5cnc(C)c5)c(OC)n4)N3)cn(C)c2c1 (single isomer, unassigned; (-)) [Example 258A, (−)-5-(6-methoxy-1-methyl-1H-indol-3-yl)-3-(6-methoxy-5-(4-methyl-1H-imidazol-1-yl)pyridin-2-yl)-5,6-dihydro-4H-1,2,4-oxadiazine]
8.9 |  | COc1nc(C2=NOCC(c3cc4ccc(Cl)cc4o3)N2)ccc1-n1cnc(C)c1 (single isomer, unassigned; (+)) [Example 78B, (+)-5-(6-chlorobenzofuran-2-yl)-3-(6-methoxy-5-(4-methyl-1H-imidazol-1-yl)pyridin-2-yl)-5,6-dihydro-4H-1,2,4-oxadiazine]
70.4 |  | COc1cc2c(cc1Cl)c(C1CON=C(c3ccc(-n4cnc(C)c4)c(OC)n3)N1)cn2C (single isomer, unassigned; (-)) [Example 255A, (−)-5-(5-chloro-6-methoxy-1-methyl-1H-indol-3-yl)-3-(6-methoxy-5-(4-methyl-1H-imidazol-1-yl)pyridin-2-yl)-5,6-dihydro-4H-1,2,4-oxadiazine]
1.7 |  | COc1nc(C2=NOCC(c3cn(C)c4ccc(C(F)(F)F)cc34)N2)ccc1-n1cnc(C)c1 (single isomer, unassigned; (+)) [Example 233B, (+)-3-(6-methoxy-5-(4-methyl-1H-imidazol-1-yl)pyridin-2-yl)-5-(1-methyl-5-(trifluoromethyl)-1H-indol-3-yl)-5,6-dihydro-4H-1,2,4-oxadiazine]
28.3 |  | COc1nc(C2=NOCC(c3ccc(Cl)cc3)N2)ccc1-n1cnc(C)c1 (single isomer, unassigned) [Example 42B, 5-(4-chlorophenyl)-3-(6-methoxy-5-(4-methyl-1H-imidazol-1-yl)pyridin-2-yl)-5,6-dihydro-4H-1,2,4-oxadiazine]
918 |  | COc1nc(C2=NOCC(C3CCCC3)N2)ccc1-n1cnc(C)c1 (single isomer, unassigned; (+)) [Example 171A, (+)-5-cyclopentyl-3-(6-methoxy-5-(4-methyl-1H-imidazol-1-yl)pyridin-2-yl)-5,6-dihydro-4H-1,2,4-oxadiazine]
10 |  | COc1nc(C2=NOCC(c3ccc(C(F)(F)F)c(Cl)c3)N2)ccc1-n1cnc(C)c1 (single isomer, unassigned; (+)) [Example 262B, (+)-5-(3-chloro-4-(trifluoromethyl)phenyl)-3-(6-methoxy-5-(4-methyl-1H-imidazol-1-yl)pyridin-2-yl)-5,6-dihydro-4H-1,2,4-oxadiazine]
 | 1730 | COc1nc(C2=NOCC(c3cscn3)N2)ccc1-n1cnc(C)c1 (single isomer, unassigned; (+)) [Example 156A, (+)-3-(6-methoxy-5-(4-methyl-1H-imidazol-1-yl)pyridin-2-yl)-5-(thiazol-4-yl)-5,6-dihydro-4H-1,2,4-oxadiazine]
21.4 |  | COc1nc(C2=NOCC(c3ccc(C(F)(F)F)c(F)c3)N2)ccc1-n1cnc(C)c1 (single isomer, unassigned) [Example 121B, 5-(3-fluoro-4-(trifluoromethyl)phenyl)-3-(6-methoxy-5-(4-methyl-1H-imidazol-1-yl)pyridin-2-yl)-5,6-dihydro-4H-1,2,4-oxadiazine]
154 |  | COc1nc(C2=NOCC(c3cn(C)c4ccccc34)N2C)ccc1-n1cnc(C)c1 (single isomer, unassigned; (+)) [Example 200A, (+)-3-(6-methoxy-5-(4-methyl-1H-imidazol-1-yl)pyridin-2-yl)-4-methyl-5-(1-methyl-1H-indol-3-yl)-5,6-dihydro-4H-1,2,4-oxadiazine]
4.9 |  | COc1nc(C2=NOCC(c3cn(C)c4cc(F)c(C)cc34)N2)ccc1-n1cnc(C)c1 (single isomer, unassigned; (+)) [Example 257B, (+)-5-(6-fluoro-1,5-dimethyl-1H-indol-3-yl)-3-(6-methoxy-5-(4-methyl-1H-imidazol-1-yl)pyridin-2-yl)-5,6-dihydro-4H-1,2,4-oxadiazine]
4.9 |  | COc1nc(C2=NOCC(c3cn(C)c4ccc(Cl)cc34)N2)ccc1-n1cnc(C)c1 (single isomer, unassigned; (+)) [Example 193B, (+)-5-(5-chloro-1-methyl-1H-indol-3-yl)-3-(6-methoxy-5-(4-methyl-1H-imidazol-1-yl)pyridin-2-yl)-5,6-dihydro-4H-1,2,4-oxadiazine]
 | 390 | COc1nc(C2=NOC[C@H](c3cc4ccccc4o3)N2C)ccc1-n1cnc(C)c1 [Example 32, (R)-5-(Benzofuran-2-yl)-3-(6-methoxy-5-(4-methyl-1H-imidazol-1-yl)pyridin-2-yl)-4-methyl-5,6-dihydro-4H-1,2,4-oxadiazine]
9.2 |  | COc1nc(C2=NOCC(c3cn(C(C)C)c4cc(F)ccc34)N2)ccc1-n1cnc(C)c1 (single isomer, unassigned; (+)) [Example 219A, (+)-5-(6-fluoro-1-isopropyl-1H-indol-3-yl)-3-(6-methoxy-5-(4-methyl-1H-imidazol-1-yl)pyridin-2-yl)-5,6-dihydro-4H-1,2,4-oxadiazine]
> 3000 |  | COc1nc(C2=NOCC(c3ccc(Cl)c(Cl)c3)N2)ccc1-n1cnc(C)c1 (single isomer, unassigned; (-)) [Example 49A, (−)-5-(3,4-dichlorophenyl)-3-(6-methoxy-5-(4-methyl-1H-imidazol-1-yl)pyridin-2-yl)-5,6-dihydro-4H-1,2,4-oxadiazine]
> 3000 |  | COc1nc(C2=NOCC(c3ccccn3)N2)ccc1-n1cnc(C)c1 (single isomer, unassigned; (-)) [Example 168B, (−)-3-(6-methoxy-5-(4-methyl-1H-imidazol-1-yl)pyridin-2-yl)-5-(pyridin-2-yl)-5,6-dihydro-4H-1,2,4-oxadiazine]
667 |  | COc1nc(C2=NOCC(c3cc4ccc(F)cc4o3)N2)ccc1-n1cnc(C)c1 (single isomer, unassigned; (-)) [Example 52A, (−)-5-(6-fluorobenzofuran-2-yl)-3-(6-methoxy-5-(4-methyl-1H-imidazol-1-yl)pyridin-2-yl)-5,6-dihydro-4H-1,2,4-oxadiazine]
> 3000 |  | COc1nc(C2=NOCC(c3ccc(Cl)cc3)N2)ccc1-n1cnc(C)c1 (single isomer, unassigned) [Example 42A, 5-(4-chlorophenyl)-3-(6-methoxy-5-(4-methyl-1H-imidazol-1-yl)pyridin-2-yl)-5,6-dihydro-4H-1,2,4-oxadiazine]
> 3000 |  | COc1nc(C2=NOCC(c3ccc(F)cc3)N2)ccc1-n1cnc(C)c1 (single isomer, unassigned) [Example 40A, 5-(4-fluorophenyl)-3-(6-methoxy-5-(4-methyl-1H-imidazol-1-yl)pyridin-2-yl)-5,6-dihydro-4H-1,2,4-oxadiazine]
